Experimental data: the supplement of paper PMC8671470

What was measured:
Settings in all cases: 72 h
KCL-22 [1] = system: KCL-22
Method in brief: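 The IC50 was read from log-logistic dose–response fits. Fifteen myeloid leukaemia lines were exposed for 72 h at 37 °C with 5% CO2 to five tenfold doses from 1 to 10,000 nM in duplicate. ATP luminescence, normalised to vehicle and to a 10 µM positive control, was fitted with four parameters.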

HL-60 [2] = test: cell viability (% survival relative to DMSO control); higher = less cytotoxic
Method in brief: (§1)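 For each screen, HL-60 cells in RPMI 1640 with 10% FBS carried either DMSO or 100 nM of one of three metabolic inhibitors while the full library was applied at five tenfold concentrations, 1–10,000 nM, in duplicate. Plates were 384-well and were kept 72 h at 37 °C, 5% CO2. Viability, measured by CellTiter-Glo, was normalised to wells with DMSO and with 10 μM proteasome inhibitor. Where area under the curve appears, it was fitted by four-parameter log-logistic models in drc and PharmacoGx.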

BV-173 = test: cell viability (% survival relative to DMSO control, bortezomib = 0%); higher = less cytotoxic
Method in brief: (§2)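 Percent survival is reported as the mean of duplicate wells. Cells from 10 AML and 5 CML lines were plated in 384-well plates containing compounds at 1, 10, 100, 1000 or 10000 nM and kept for 72 h at 37 °C in 5% CO2. Readout used CellTiter-Glo luminescence, scaled so that vehicle equals 100% and a 10 µM positive control equals 0%.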

HEL = test: as above
Method in brief: as §2

HL-60 [3] = test: as above
Method in brief: as §2

K-562 = test: as above
Method in brief: as §2

KCL-22 [4] = test: as above
Method in brief: as §2

KG-1 = test: as above
Method in brief: as §2

KU-812 = test: as above
Method in brief: as §2

LAMA-84 = test: as above
Method in brief: as §2

ML-2 = test: as above
Method in brief: as §2

MOLM-13 = test: as above
Method in brief: as §2

MV4-11 = test: as above
Method in brief: as §2

Mono-Mac-6 = test: as above
Method in brief: as §2

NOMO-1 = test: as above
Method in brief: as §2

SHI-1 = test: as above
Method in brief: as §2

THP-1 = test: as above
Method in brief: as §2

HL-60 [5] = test: area under dose-response curve (viability, 1 nM-10 uM) (fraction (0-1)); higher = more sensitive
Method in brief: as §1

O=C(Oc1ccc([N+](=O)[O-])cc1)N1CCC(C(O)(c2ccc3c(c2)OCO3)c2ccc3c(c2)OCO3)CC1 [JZL184]
Settings	IC50 (cell viability) [µM]
KCL-22 [1]	> 10

cell viability [%], HL-60 [2]
Settings	0.001 µM	0.01 µM	0.1 µM	1 µM	10 µM
co-treatment: AZD3965 100 nM	110	92.8	104	98.7	105.1
co-treatment: DMSO vehicle	100	93.8	100.9	101	97.3
co-treatment: GSK2194069 100 nM	103	99.6	99.2	101	107
co-treatment: pictilisib 100 nM	83.1	89.4	97.2	95.5	99

Settings	area under dose-response curve, co-treatment: AZD3965 100 nM	area under dose-response curve, co-treatment: DMSO vehicle	area under dose-response curve, co-treatment: GSK2194069 100 nM	area under dose-response curve, co-treatment: pictilisib 100 nM	cell viability, 1 nM [%]	cell viability, 10 nM [%]	cell viability, 100 nM [%]	cell viability, 1000 nM [%]	cell viability, 10000 nM [%]
BV-173	–	–	–	–	95.2	96.5	90.7	92.9	69.4
HEL	–	–	–	–	97.3	114	120	90.6	97.4
HL-60 [3]	–	–	–	–	96.9	98.8	105	103	101
HL-60 [5]	< 0.0301	< 0.0301	< 0.0301	< 0.0301	–	–	–	–	–
K-562	–	–	–	–	92.8	110	106	87	95.7
KCL-22 [4]	–	–	–	–	90.8	108	112	105	92.3
KG-1	–	–	–	–	101	107	100	104	94
KU-812	–	–	–	–	101	102	112	90.5	85.8
LAMA-84	–	–	–	–	97	102	95.9	89.7	96.6
ML-2	–	–	–	–	102	112	114	104	98.9
MOLM-13	–	–	–	–	92.2	100	117	107	92.9
MV4-11	–	–	–	–	94.9	95.7	98.9	94.5	88.5
Mono-Mac-6	–	–	–	–	90.2	111	104	103	92.3
NOMO-1	–	–	–	–	101	99.5	102	102	95.2
SHI-1	–	–	–	–	110	97.9	129	103	90.7
THP-1	–	–	–	–	97.2	103	95.4	101	96.2

CN(C)C(=N)NC(=N)N [Metformin]
Settings	IC50 (cell viability) [µM]
KCL-22 [1]	> 10

cell viability [%], HL-60 [2]
Settings	0.001 µM	0.01 µM	0.1 µM	1 µM	10 µM
co-treatment: AZD3965 100 nM	94.9	99	103	94.9	100
co-treatment: DMSO vehicle	101.9	95.8	102.3	95.9	96.73
co-treatment: GSK2194069 100 nM	98.7	98	109	94	106
co-treatment: pictilisib 100 nM	92	111	120	96.7	104

Settings	area under dose-response curve, co-treatment: AZD3965 100 nM	area under dose-response curve, co-treatment: DMSO vehicle	area under dose-response curve, co-treatment: GSK2194069 100 nM	area under dose-response curve, co-treatment: pictilisib 100 nM	cell viability, 1 nM [%]	cell viability, 10 nM [%]	cell viability, 100 nM [%]	cell viability, 1000 nM [%]	cell viability, 10000 nM [%]
BV-173	–	–	–	–	107	90.3	92	100	89.2
HEL	–	–	–	–	110	94.3	107	102	97.3
HL-60 [3]	–	–	–	–	98.2	93.8	109	102	84.3
HL-60 [5]	< 0.0301	< 0.0301	< 0.0301	< 0.0301	–	–	–	–	–
K-562	–	–	–	–	91.9	102	97.5	103	91.1
KCL-22 [4]	–	–	–	–	98.2	98.9	98.4	103	88.1
KG-1	–	–	–	–	97.4	97.3	101	100	96.3
KU-812	–	–	–	–	102	95.5	96.2	110	88.5
LAMA-84	–	–	–	–	95.6	87.9	97.9	97.7	92.9
ML-2	–	–	–	–	102	101	99.2	101	88.5
MOLM-13	–	–	–	–	105	91.5	117	102	83.5
MV4-11	–	–	–	–	91.2	79.7	81.7	107	84.7
Mono-Mac-6	–	–	–	–	113	89.7	95.5	97.9	91.8
NOMO-1	–	–	–	–	109	93.6	95.4	97.1	92.2
SHI-1	–	–	–	–	103	98.3	104	106	93.9
THP-1	–	–	–	–	99.4	95.4	93	101	94.4
